US20180353539A1, “METAL COMPLEXES AS PHARMACEUTICALS FOR TREATMENT AND PREVENTION OF CANCER AND INFLAMMATORY DISEASES” (UNIVERSITY OF SOUTHERN CALIFORNIA, priority 2017, published 2018)

Experiments:
[1] = MTT assays; salicylic acid alone
[2] = test system: stage IV breast cancer metastasized to lungs and brain; assay: Case Study 3; format: in vivo, human
Description: A patient was diagnosed with stage IV breast cancer and invasive ductal carcinoma metastasized to multiple organs (lungs and brain). […] They then took 3 dosages of 50 mg of zinc iodide per day orally. A chest ray was taken 61 days after the start of treatment, as shown the lung metastases decreased by more than 60%.

liver cancer = assay: Case Study 17; format: in vivo, human
Description: A person with chronic hepatitis C presented symptoms of abdominal pain. […] They had also been diagnosed with type 2 diabetes three years prior. […] Within 5 days their abdominal pain disappeared, and […] general health improved. […] Their cancer related markers included: AFP: 678 IU/L, GOP: 146 IU/L, GPT: 126 IU/L, and GGT: 124 IU/L. The patient's blood glucose level was 6.7 mmol/L. For the next 90 days, the patient took 50 mg of zinc iodide orally in capsule form 3 times/day. […] Their cancer related markers included: AFP: 107 IU/L, GOP: 195 IU/L, GPT: 69 IU/L, and GGT: 115 IU/L. The patient's blood glucose level was 7.4 mmol/L.

lung cancer = assay: Case Study 14; format: in vivo, human
Description: A person presented with cough and chest pains that persisted over 6 months. In that time, they also lost 6 kg of weight. In the last 20 days, the patient developed hemoptysis, which lead them to hospitalization. […] They also had total opacification of the right lung. The patient was diagnosed with lung cancer and sent home. The patient was treated with 3-50 mg Zinc Iodide capsules/day for 120 days. After 5 days, their breathing capabilities and cough improved.

[3] = test system: esophageal cancer with multiple lymphatic metastases; assay: Case Study 10; format: in vivo, human
Description: A person was diagnosed with esophageal cancer with multiple lymphatic metastases. Their blood chemistry profile was normal, but their CEA levels were 6.7 ng/mL. The patient presented symptoms of extreme fatigue, difficult swallowing, chest pains, fever and weight loss. An endoscopy reveled a 4.2 cm×3.7 cm lesion on their esophagus. The tumor had poorly differentiated adenocarcinoma. […] The patient underwent treatments of 200 mg of zinc iodide mixing with 1000 mL of 0.9% sodium chloride solution and in 10 mL of DMSO, 6 times/week for 4 weeks. […] They also stopped steroid treatment. […] After 24 days of the infusion treatment, they began taking 50 mg Zinc Iodide capsules, 3 times/day for 90 days.

[4] = test system: adenocarcinoma of the pancreatic head; assay: Case Study 6; format: in vivo, human; parameters: total bilirubin: unit not given here
Description: A person had symptoms of weight loss and abdominal pain over a 2-month period. […] At the head, there was a 38-mm×42 mm mass detected. In addition, their intrahepatic billiard tree was dilated. The patient was given 125 mg of Zinc Iodide mixing with 1000 ml of sodium chloride 0.9% and 10 ml of DMSO through infusion daily for 20 days. […] They gained 4 kg of body weight. […] The patient is symptom free.

cholangiocarcinoma = assay: Case Study 9; format: in vivo, human; parameters: total bilirubin: unit not given here
Description: A person presented with jaundice, abdominal discomfort and lack of appetite. They could not eat or drink properly. Over the last 3 months, their weight decreased by 8 kg. […] There was also a hypodense lesion with an intraductal growth type, sized at 3.6 cm×4.1 cm, on their liver. […] They were diagnosed with cholangiocarcinoma.

Case Study 15 = format: in vivo, human
Description: Due to this, they were hospitalized 4-5 times/year. For 3 years, they used a corticosteroid inhaler, bronchodilator, antibiotics and COPD medication to no avail. They were also taking hypertension medication as a result of the COPD treatment. Their blood pressure was 160/96 and Forced Expiratory Volume (FEV1) at 58%. The patient was treated with 3-50 mg Zn Iodide capsules/day. […] […] (FEV1) was 67% and their blood pressure decreased to 130/90. […] Even though they were not taking COPD medication, there were no signs of infections either.

[5] = test system: prostate cancer with diffuse metastases; assay: Case Study 7; format: in vivo, human
Description: A patient had prostate cancer with diffuse metastases, along with severe leg pain. They underwent hormonal therapy, until they developed severe bone pain. They took voltaren injections and solumedrol infusions to alleviate the pain. […] The patient was weak and lost 5 kg of weight in a month. They began the treatment with 125 mg of Zinc Iodide mixing with 1000 ml of sodium chloride 0.9% and 10 ml of DMSO through infusion. […] Their RBC, hemoglobin and serum calcium levels all normalized; and their PSA decrease dramatically to 40 ng/mL. Their quality of life improved greatly, and they had no symptoms.

[6] = test system: pancreatic adenocarcinoma; assay: Case Study 16; format: in vivo, human
Description: A person presented symptoms of abdominal pain, nausea, and vomiting. […] They also had multiple metastases on their liver. They were diagnosed with pancreatic adenocarcinoma. Their CA 19-9 (levels of tumor-associated antigens in the blood) was 365 U/mL. The patient was treated through infusion with 200 mg of zinc Iodide mixing with 1000 mL of 0.9% sodium chloride solution and 10 mL of DMSO. The symptoms presented improved after 2 days of treatment. […] After 35 days on the treatment, an ultrasound was taken of the pancreas. The tumor had decreased to 4.3 cm×5.2 cm. Their CA 19-9 levels decreased to 168 U/mL. After 40 treatments, the patient began treatment orally; they were given 50 mg zinc iodide capsules 3 times/day. After 155 days on the oral treatment, a CT of their pancreas was taken. The tumor decreased to 2.4 cm×3.6 cm. The liver metastasis decreased by 50% also.

[7] = 61 days after the start of treatment
[8] = after further 90 days of oral treatment
[9] = 105 days after the beginning of treatment

O=C(O)c1ccccc1O [salicylic acid]
cellular activity [1]: no effect on cellular activity

[I][Zn][I] [Zinc Iodide, zinc iodide]
decrease of lung metastases [2, 7]: more than 60%
reduction of brain metastases (MRI) [2, 7]: 50%
symptoms of coughing, headache and nausea ([2]; over 12 days of infusion): gradually improved
GOT (liver cancer; after 10 days, GOT before treatment 326): 224 IU/L
blood glucose level (liver cancer; after 10 days, before treatment 8.5): 7.6 mmol/L
GGT (liver cancer; after 10 days, before treatment 251): 93 IU/L
GPT (liver cancer; after 10 days, before treatment 293): 187 IU/L
AFP (liver cancer; after 10 days, before treatment 1450): 1209 IU/L
AFP (liver cancer; after 21 days): 678 IU/L
GGT (liver cancer; after 21 days): 124 IU/L
GOT (liver cancer; after 21 days): 146 IU/L
GPT (liver cancer; after 21 days): 126 IU/L
blood glucose level (liver cancer; after 21 days): 6.7 mmol/L
AFP (liver cancer; [8]): 107 IU/L
GGT (liver cancer; [8]): 115 IU/L
GOT (liver cancer; [8]): 195 IU/L
GPT (liver cancer; [8]): 69 IU/L
blood glucose level (liver cancer; [8]): 7.4 mmol/L
abdominal pain (liver cancer; within 5 days): disappeared
breathing capabilities and cough (lung cancer; after 5 days): improved
clearance of opacification (CT) (lung cancer; after 121 days): 80%
blood in sputum (lung cancer; by 12 days): no longer had blood in their sputum
lymph nodes ([3]; 105th day): clear of metastases
fever and pain ([3]; after 3 days): no symptoms of fever or pain
general health ([3]; after 3 days): improved
eating and drinking ([3]; within 3 weeks): could eat and drink normally
CA 19-9 level ([4]; 63rd day): 46 U/mL
liver metastases ([4]; 63rd day): no indications of liver metastases
symptoms ([4]; after treatment): symptom free
total bilirubin ([4]; at 10 days, before treatment 78): 56
AST ([4]; at 10 days, before treatment 113): 73 U/L
GGT ([4]; at 10 days, before treatment 149): 149 U/L
ALT ([4]; at 10 days, before treatment 187): 73 U/L
CA 19-9 ([4]; at 10 days, before treatment 385): 184 U/L
body weight gained ([4]; during oral treatment): 4 kg
pain ([4]; within 7 days): completely disappeared
GGT levels (cholangiocarcinoma; 105 days): 784 U/L
GOT levels (cholangiocarcinoma; 105 days): 67 U/L
GPT levels (cholangiocarcinoma; 105 days): 54 U/L
total bilirubin (cholangiocarcinoma; 105 days): 28
symptoms (cholangiocarcinoma; [9]): no longer experienced symptoms
weight gained (cholangiocarcinoma; [9]): 4 kg
GPT (cholangiocarcinoma; after 10 days, before treatment 127): 97 U/L
total bilirubin (cholangiocarcinoma; after 10 days, before treatment 139): 75
GOT (cholangiocarcinoma; after 10 days, before treatment 163): 121 U/L
GGT (cholangiocarcinoma; after 10 days, before treatment 1410): 1267 U/L
GGT (cholangiocarcinoma; at 21 days): 978 U/L
GOT (cholangiocarcinoma; at 21 days): 85 U/L
GPT (cholangiocarcinoma; at 21 days): 193 U/L
jaundice (cholangiocarcinoma; at 21 days): improved
total bilirubin (cholangiocarcinoma; at 21 days): 56
digestive health (cholangiocarcinoma; within 5 days): improved significantly
Forced Expiratory Volume (FEV1) (Case Study 15; 92 days after first treatment): 75%
blood pressure (Case Study 15; 92 days after first treatment): 125/90
shortness of breath (Case Study 15; 92 days after first treatment): no longer had shortness of breath
need for fast acting bronchodilator inhalers (Case Study 15; after 3 days): no longer needed fast acting bronchodilator inhalers
COPD related symptoms (Case Study 15; at 30 days): remarkable improvement
Forced Expiratory Volume (FEV1) (Case Study 15; at 30 days, before treatment 58%): 67%
blood pressure (Case Study 15; at 30 days, before treatment 160/96): 130/90
COPD related episodes (Case Study 15; in the following 2 months): did not have any COPD related episodes
need for corticosteroid inhalers (Case Study 15; within 10 days): no longer needed corticosteroid inhalers
RBC, hemoglobin and serum calcium levels ([5]; after oral treatment): normalized
symptoms ([5]; after oral treatment): no symptoms
ultrasound and x-ray scans ([5]; after oral treatment): no abnormalities
PSA ([5]; after oral treatment, before treatment 260): 40 ng/mL
pain medication ([5]; by day 20): stopped all pain medication
RBC count ([5]; day 20, before treatment 3.2): 4.2 million cells/uL
serum calcium levels ([5]; day 20, before treatment 3.5): 2.5 mmol/L
hemoglobin ([5]; day 20, before treatment 9): 10.7 g/dL
pain improvement ([5]; within 7 days): 70%
symptoms ([6]; after 2 days of treatment): improved
CA 19-9 levels ([6]; after 35 days, before treatment 365): 168 U/mL
decrease of liver metastasis ([6]; after 155 days on the oral treatment): 50%
symptoms ([6]; by the 5th day): almost symptom-free
